Measurements published in patent US7786083B2, “Metastin derivatives and use thereof” (Takeda Pharmaceutical Company Limited, priority 2006, dated 2010).
*1 amine or outer side, *2 acyl side, *3 side chain or, on linkers, in order; H or OH if unused. Where a SMILES comes first, the peptide text is derived from it. [ ]: non-standard residue; d: D form. Glyψ(E-CHCH)Leu = CC(C)C[C@H](/C=C/CN[*:1])C(=O)[*:2]; Glyψ(CH2S)Leu = CC(C)C[C@H](SCCN[*:1])C(=O)[*:2]; X6 = O=C(COC[C@H](Cc1ccccc1)N[*:1])[*:2]; X1 = CC(C)C[C@H](CCCN[*:1])C(=O)[*:2]; Arg(Me) = CNC(=N)NCCC[C@H](N)C(=O)O; Dap(CONH2) = NC(=O)NC[C@H](N)C(=O)O; Ala(cPr) = N[C@@H](CC1CC1)C(=O)O; Hyp = O=C(O)[C@@H]1C[C@@H](O)CN1; 2Pal = N[C@@H](Cc1ccccn1)C(=O)O; Cha = N[C@@H](CC1CCCCC1)C(=O)O; Aib = CC(C)(N)C(=O)O

Each compound was assayed on metastin receptors (assay: Measurement of agonist activity by assaying changes in intracellular calcium ion level (FLIPR, Fluo-4 NW)). Details: specific activity of the EC50 of a test compound based on the EC50 of Metastin (45-54), metastin receptor expression CHO cells.
Assay type: cell-based, human
How it was run: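 CHO/dhfr⁻ cells stably expressing human or rat metastin receptor, seeded 3×10^4/well for 24 h, loaded with Fluo-4 NW 30 min at 37 °C in HBSS with 0.1% BSA, 20 mM HEPES pH 7.4 and 1 mM probenecid. Compound-stimulated intracellular calcium change read on FLIPR.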

| Compound | Specific Activity |
| --- | --- |
| CC(=O)N[C@H](Cc1ccc(O)cc1)C(=O)N1C[C@H](O)C[C@H]1C(=O)N[C@@H](CC(N)=O)C(=O)N[C@H](C(=O)N[C@@H](Cc1ccccc1)C(=O)NC/C=C/[C@@H](CC(C)C)C(=O)N[C@@H](CCCNC(=N)N)C(=O)N[C@@H](Cc1c[nH]c2ccccc12)C(N)=O)[C@@H](C)O [Compound No. 925, des(1)-Ac-[D-Tyr2,Hyp3,Thr5,Gly7Ψ((E)CH═CH)Leu8,Trp10]MS10] (Ac-[dY][Hyp]NTF[Glyψ(E-CHCH)Leu]RW-NH2) | 0.4 |
| CNC(=N)NCCC[C@H](NC(=O)[C@H](CC(C)C)NC(=O)C(C)(C)NC(=O)[C@H](Cc1ccccc1)NC(=O)[C@@H](NC(=O)[C@H](CC(N)=O)NC(=O)[C@@H]1C[C@@H](O)CN1C(=O)[C@@H](Cc1ccc(O)cc1)NC(C)=O)[C@@H](C)O)C(=O)N[C@@H](Cc1c[nH]c2ccccc12)C(N)=O [Compound No. 811, des(1)-Ac-[D-Tyr2,Hyp3,Thr5,Aib7,Arg(Me)9,Trp10]MS10] (Ac-[dY][Hyp]NTF[Aib]L[Arg(Me)]W-NH2) | 1.5 |
| CNC(=N)NCCC[C@H](NC(=O)[C@H](CC1CC1)NC(=O)CNC(=O)[C@H](Cc1ccccc1)NC(=O)[C@@H](NC(=O)[C@H](CC(N)=O)NC(=O)[C@@H]1C[C@@H](O)CN1C(=O)[C@@H](Cc1ccc(O)cc1)NC(C)=O)[C@@H](C)O)C(=O)N[C@@H](Cc1c[nH]c2ccccc12)C(N)=O [Compound No. 916, des(1)-Ac-[D-Tyr2,Hyp3,Thr5,Ala(cPr)8,Arg(Me)9,Trp10]MS10] (Ac-[dY][Hyp]NTFG[Ala(cPr)][Arg(Me)]W-NH2) | 0.8 |
| CNC(=N)NCCC[C@H](NC(=O)[C@H](CC1CC1)NC(=O)CNC(=O)[C@H](CC1CCCCC1)NC(=O)CNC(=O)[C@H](CNC(N)=O)NC(=O)[C@@H]1C[C@@H](O)CN1C(=O)[C@@H](Cc1ccc(O)cc1)NC(C)=O)C(=O)N[C@@H](Cc1c[nH]c2ccccc12)C(N)=O [Compound No. 949, des(1)-Ac-[D-Tyr2,Hyp3,Alb4,Gly5,Cha6,Ala(cPr)8,Arg(Me)9,Trp10]MS10] (Ac-[dY][Hyp][Dap(CONH2)]G[Cha]G[Ala(cPr)][Arg(Me)]W-NH2) | 0.7 |
| CC(=O)N[C@H](Cc1ccc(O)cc1)C(=O)N1C[C@H](O)C[C@H]1C(=O)N[C@@H](CNC(N)=O)C(=O)N[C@H](C(=O)N[C@@H](CC1CCCCC1)C(=O)NC/C=C/[C@@H](CC(C)C)C(=O)N[C@@H](CCCNC(=N)N)C(=O)N[C@@H](Cc1c[nH]c2ccccc12)C(N)=O)[C@@H](C)O [Compound No. 927, des(1)-Ac-[D-Tyr2,Hyp3,Alb4,Thr5,Cha6,Gly7Ψ((E)CH═CH)Leu8,Trp10]MS10] (Ac-[dY][Hyp][Dap(CONH2)]T[Cha][Glyψ(E-CHCH)Leu]RW-NH2) | 0.5 |
| CNC(=N)NCCC[C@H](NC(=O)[C@@H](/C=C/CNC(=O)[C@H](CC1CCCCC1)NC(=O)[C@@H](NC(=O)[C@H](CC(N)=O)NC(=O)[C@H](CCC(=O)O)NC(=O)[C@@H](Cc1ccc(O)cc1)NC(C)=O)[C@@H](C)O)CC(C)C)C(=O)N[C@@H](Cc1c[nH]c2ccccc12)C(N)=O [Compound No. 904, des(1)-Ac-[D-Tyr2,Glu3,Thr5,Cha6,Gly7Ψ((E)CH═CH)Leu8,Arg(Me)9,Trp10]MS10] (Ac-[dY]ENT[Cha][Glyψ(E-CHCH)Leu][Arg(Me)]W-NH2) | 0.5 |
| CNC(=N)NCCC[C@H](NC(=O)[C@H](CC(C)C)SCCNC(=O)[C@H](Cc1ccccc1)NC(=O)[C@@H](NC(=O)[C@H](CC(N)=O)NC(=O)[C@@H]1C[C@@H](O)CN1C(=O)[C@@H](Cc1ccc(O)cc1)NC(C)=O)[C@@H](C)O)C(=O)N[C@@H](Cc1c[nH]c2ccccc12)C(N)=O [Compound No. 929, des(1)-Ac-[D-Tyr2,Hyp3,Thr5,Gly7Ψ(CH2S)Leu8,Arg(Me)9,Trp10]MS10] (Ac-[dY][Hyp]NTF[Glyψ(CH2S)Leu][Arg(Me)]W-NH2) | 1.2 |
| CNC(=N)NCCC[C@H](NC(=O)[C@H](CC(C)C)NC(=O)[C@H](C)NC(=O)[C@H](CC1CCCCC1)NC(=O)[C@@H](NC(=O)[C@H](CC(N)=O)NC(=O)[C@@H]1C[C@@H](O)CN1C(=O)[C@@H](Cc1ccc(O)cc1)NC(C)=O)[C@@H](C)O)C(=O)N[C@@H](Cc1c[nH]c2ccccc12)C(N)=O [Compound No. 823, des(1)-Ac-[D-Tyr2,Hyp3,Thr5,Cha6,Ala7,Arg(Me)9,Trp10]MS10] (Ac-[dY][Hyp]NT[Cha]AL[Arg(Me)]W-NH2) | 0.5 |
| CC(=O)N[C@H](Cc1ccc(O)cc1)C(=O)N1C[C@H](O)C[C@H]1C(=O)N[C@@H](CNC(N)=O)C(=O)N[C@H](C(=O)N[C@@H](CC1CCCCC1)C(=O)NCCC[C@@H](CC(C)C)C(=O)N[C@@H](CCCNC(=N)N)C(=O)N[C@@H](Cc1c[nH]c2ccccc12)C(N)=O)[C@@H](C)O [Compound No. 952, des(1)-Ac-[D-Tyr2,Hyp3,Alb4,Thr5,Cha6,Gly7Ψ(CH2CH2)Leu8,Trp10]MS10] (Ac-[dY][Hyp][Dap(CONH2)]T[Cha][X1]RW-NH2) | 1.3 |
| CNC(=N)NCCC[C@H](NC(=O)[C@@H](/C=C/CNC(=O)[C@H](CC1CCCCC1)NC(=O)[C@@H](NC(=O)[C@H](CNC(N)=O)NC(=O)[C@@H]1C[C@@H](O)CN1C(=O)[C@@H](Cc1ccc(O)cc1)NC(C)=O)[C@@H](C)O)CC(C)C)C(=O)N[C@@H](Cc1c[nH]c2ccccc12)C(N)=O [Compound No. 903, des(1)-Ac-[D-Tyr2,Hyp3,Alb4,Thr5,Cha6,Gly7Ψ((E)CH═CH)Leu8,Arg(Me)9,Trp10]MS10] (Ac-[dY][Hyp][Dap(CONH2)]T[Cha][Glyψ(E-CHCH)Leu][Arg(Me)]W-NH2) | 0.4 |
| CNC(=N)NCCC[C@H](NC(=O)[C@H](CC(C)C)NC(=O)CNC(=O)[C@H](Cc1ccccn1)NC(=O)[C@@H](NC(=O)[C@H](CC(N)=O)NC(=O)[C@@H]1C[C@@H](O)CN1C(=O)[C@@H](Cc1ccc(O)cc1)NC(C)=O)[C@@H](C)O)C(=O)N[C@@H](Cc1c[nH]c2ccccc12)C(N)=O [Compound No. 839, des(1)-Ac-[D-Tyr2,Hyp3,Thr5,Pya(2)6,Arg(Me)9,Trp10]MS10] (Ac-[dY][Hyp]NT[2Pal]GL[Arg(Me)]W-NH2) | 1.2 |
| CNC(=N)NCCC[C@H](NC(=O)[C@@H](CCCNC(=O)[C@H](Cc1ccccc1)NC(=O)[C@@H](NC(=O)[C@H](CC(N)=O)NC(=O)[C@@H]1C[C@@H](O)CN1C(=O)[C@@H](Cc1ccc(O)cc1)NC(C)=O)[C@@H](C)O)CC(C)C)C(=O)N[C@@H](Cc1c[nH]c2ccccc12)C(N)=O [Compound No. 893, des(1)-Ac-[D-Tyr2,Hyp3,Thr5,Gly7Ψ((E)CH2CH2)Leu8,Arg(Me)9,Trp10]MS10] (Ac-[dY][Hyp]NTF[X1][Arg(Me)]W-NH2) | 0.8 |
| CNC(=N)NCCC[C@H](NC(=O)[C@H](CC(C)C)NC(=O)COC[C@H](Cc1ccccc1)NC(=O)[C@@H](NC(=O)[C@H](CC(N)=O)NC(=O)[C@@H]1C[C@@H](O)CN1C(=O)[C@@H](Cc1ccc(O)cc1)NC(C)=O)[C@@H](C)O)C(=O)N[C@@H](Cc1c[nH]c2ccccc12)C(N)=O [Compound No. 834, des(1)-Ac-[D-Tyr2,Hyp3,Thr5,Phe6Ψ(CH2O)Gly7,Arg(Me)9,Trp10]MS10] (Ac-[dY][Hyp]NT[X6]L[Arg(Me)]W-NH2) | 0.5 |
